Here are results for 20 molecules from US8853418B2, “Cyclopentylpyrazoles as N-type calcium channel blockers” (Janssen Pharmaceutica NV, priority 2012, dated 2014).

Read-outs that look alike come from different tables or passages of the source.

Experiment [1] has as its target N-type calcium channel (α1B (Cav2.2), β3 and α2δ subunits) (Homo sapiens, UniProt Q00975). Description: Functional Assay: Antagonism of N-Type Calcium Channel (FDSS calcium mobilization, KCl depolarization). The format is cell-based. The following applies: for IC50: HEK cell line, 50 mM KCl depolarization, six-point concentration-response, read-out: FDSS IC50. The essentials:
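HEK cells stably co-expressing α1B (Cav2.2), β3 and α2δ were loaded with calcium dye, then given compound with fluorescence recorded for 5 min before 50 mM KCl depolarisation and 3 min more reading. IC50 came from six-point curves of maximal fluorescence, normalised to KCl maximum and buffer minimum.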

Another experiment has as its target N-type calcium channel (Homo sapiens, UniProt Q00975). Description: Automated Electrophysiology Assay (QPatch-HT whole-cell patch clamp; low- and high-frequency stimulation). The format is cell-based. On the technique in general: In patch-clamp work, channel activity is measured electrically.
Setting [2] is: high-frequency stimulation (15th pulse), read-out: QPatch at High Frequency % Inhibition.
Where [3] appears, read: low frequency, read-out: QPatch at Low Frequency % Inhibition.

N-type calcium channel, sequence (Q00975 whole entry): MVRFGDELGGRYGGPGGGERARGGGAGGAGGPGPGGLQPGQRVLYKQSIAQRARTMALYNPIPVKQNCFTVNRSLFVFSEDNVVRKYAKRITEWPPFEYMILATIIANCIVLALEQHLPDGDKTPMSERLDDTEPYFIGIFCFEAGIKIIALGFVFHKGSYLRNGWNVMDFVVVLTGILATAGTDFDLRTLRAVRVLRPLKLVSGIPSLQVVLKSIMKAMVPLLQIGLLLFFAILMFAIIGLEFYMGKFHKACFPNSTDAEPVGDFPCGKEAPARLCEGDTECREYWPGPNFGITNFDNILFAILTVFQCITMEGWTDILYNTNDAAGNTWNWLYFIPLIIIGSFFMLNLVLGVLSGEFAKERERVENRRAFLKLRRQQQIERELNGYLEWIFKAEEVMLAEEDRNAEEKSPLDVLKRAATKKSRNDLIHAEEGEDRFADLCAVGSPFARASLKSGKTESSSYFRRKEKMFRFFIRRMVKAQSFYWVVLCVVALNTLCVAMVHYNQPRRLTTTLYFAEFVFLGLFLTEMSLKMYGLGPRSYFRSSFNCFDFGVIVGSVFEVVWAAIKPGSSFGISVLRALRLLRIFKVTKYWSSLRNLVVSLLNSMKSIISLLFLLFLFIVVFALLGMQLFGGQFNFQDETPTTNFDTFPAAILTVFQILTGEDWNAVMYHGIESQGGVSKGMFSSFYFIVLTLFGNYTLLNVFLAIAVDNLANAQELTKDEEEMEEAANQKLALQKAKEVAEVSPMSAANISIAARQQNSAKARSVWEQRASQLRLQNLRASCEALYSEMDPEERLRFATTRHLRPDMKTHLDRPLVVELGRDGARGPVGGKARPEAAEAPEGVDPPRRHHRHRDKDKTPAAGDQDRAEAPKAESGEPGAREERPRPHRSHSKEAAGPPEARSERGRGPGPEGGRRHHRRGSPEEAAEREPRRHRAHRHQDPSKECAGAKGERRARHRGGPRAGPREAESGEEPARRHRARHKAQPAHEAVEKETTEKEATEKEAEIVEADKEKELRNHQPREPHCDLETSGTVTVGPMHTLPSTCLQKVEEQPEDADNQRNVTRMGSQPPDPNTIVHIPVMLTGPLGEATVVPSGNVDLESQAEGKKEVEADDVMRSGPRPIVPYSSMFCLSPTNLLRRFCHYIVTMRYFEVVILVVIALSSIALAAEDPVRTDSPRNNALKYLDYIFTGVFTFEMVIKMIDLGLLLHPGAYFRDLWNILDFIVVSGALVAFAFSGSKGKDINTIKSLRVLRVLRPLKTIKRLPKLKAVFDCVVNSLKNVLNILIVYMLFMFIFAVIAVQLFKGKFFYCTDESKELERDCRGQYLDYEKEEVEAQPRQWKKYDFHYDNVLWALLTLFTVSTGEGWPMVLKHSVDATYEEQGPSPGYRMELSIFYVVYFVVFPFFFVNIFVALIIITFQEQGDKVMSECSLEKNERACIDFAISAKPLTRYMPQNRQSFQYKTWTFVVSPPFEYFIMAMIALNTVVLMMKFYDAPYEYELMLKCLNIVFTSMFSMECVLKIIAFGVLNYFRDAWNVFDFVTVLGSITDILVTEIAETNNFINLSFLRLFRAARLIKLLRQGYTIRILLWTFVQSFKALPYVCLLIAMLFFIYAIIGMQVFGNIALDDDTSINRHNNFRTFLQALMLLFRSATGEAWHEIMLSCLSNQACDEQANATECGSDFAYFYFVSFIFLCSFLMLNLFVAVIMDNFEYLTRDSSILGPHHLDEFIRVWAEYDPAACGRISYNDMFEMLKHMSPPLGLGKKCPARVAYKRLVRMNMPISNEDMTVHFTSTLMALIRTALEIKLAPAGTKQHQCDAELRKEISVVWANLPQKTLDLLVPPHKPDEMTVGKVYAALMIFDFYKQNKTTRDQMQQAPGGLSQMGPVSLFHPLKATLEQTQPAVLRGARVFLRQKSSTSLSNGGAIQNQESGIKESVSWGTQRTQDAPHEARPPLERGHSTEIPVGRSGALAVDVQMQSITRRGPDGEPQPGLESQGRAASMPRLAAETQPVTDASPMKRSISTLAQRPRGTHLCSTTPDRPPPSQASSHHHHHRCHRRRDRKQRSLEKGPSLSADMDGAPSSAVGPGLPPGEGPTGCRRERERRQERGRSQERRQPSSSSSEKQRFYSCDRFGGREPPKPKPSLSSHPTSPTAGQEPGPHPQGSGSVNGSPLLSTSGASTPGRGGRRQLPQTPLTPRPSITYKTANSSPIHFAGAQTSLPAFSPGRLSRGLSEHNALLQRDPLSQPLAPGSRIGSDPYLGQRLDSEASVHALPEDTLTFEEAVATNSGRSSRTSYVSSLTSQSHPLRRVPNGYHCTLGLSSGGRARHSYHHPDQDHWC
N-type calcium channel, sequence (P54284 whole entry partner): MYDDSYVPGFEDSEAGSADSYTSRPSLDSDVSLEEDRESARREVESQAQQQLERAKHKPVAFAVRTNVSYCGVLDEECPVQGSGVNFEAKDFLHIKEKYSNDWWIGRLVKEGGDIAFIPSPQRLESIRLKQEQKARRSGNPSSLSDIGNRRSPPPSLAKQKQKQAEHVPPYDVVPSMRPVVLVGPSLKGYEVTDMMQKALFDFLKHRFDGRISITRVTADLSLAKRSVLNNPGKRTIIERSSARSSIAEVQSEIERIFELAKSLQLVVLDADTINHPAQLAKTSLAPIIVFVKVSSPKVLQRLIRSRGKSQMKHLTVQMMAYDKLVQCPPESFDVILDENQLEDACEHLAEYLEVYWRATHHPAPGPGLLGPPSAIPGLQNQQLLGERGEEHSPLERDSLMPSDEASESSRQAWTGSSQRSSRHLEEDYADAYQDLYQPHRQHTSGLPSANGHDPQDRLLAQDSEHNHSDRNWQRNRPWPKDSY
N-type calcium channel, sequence (P54289 25-946 partner limits assumed): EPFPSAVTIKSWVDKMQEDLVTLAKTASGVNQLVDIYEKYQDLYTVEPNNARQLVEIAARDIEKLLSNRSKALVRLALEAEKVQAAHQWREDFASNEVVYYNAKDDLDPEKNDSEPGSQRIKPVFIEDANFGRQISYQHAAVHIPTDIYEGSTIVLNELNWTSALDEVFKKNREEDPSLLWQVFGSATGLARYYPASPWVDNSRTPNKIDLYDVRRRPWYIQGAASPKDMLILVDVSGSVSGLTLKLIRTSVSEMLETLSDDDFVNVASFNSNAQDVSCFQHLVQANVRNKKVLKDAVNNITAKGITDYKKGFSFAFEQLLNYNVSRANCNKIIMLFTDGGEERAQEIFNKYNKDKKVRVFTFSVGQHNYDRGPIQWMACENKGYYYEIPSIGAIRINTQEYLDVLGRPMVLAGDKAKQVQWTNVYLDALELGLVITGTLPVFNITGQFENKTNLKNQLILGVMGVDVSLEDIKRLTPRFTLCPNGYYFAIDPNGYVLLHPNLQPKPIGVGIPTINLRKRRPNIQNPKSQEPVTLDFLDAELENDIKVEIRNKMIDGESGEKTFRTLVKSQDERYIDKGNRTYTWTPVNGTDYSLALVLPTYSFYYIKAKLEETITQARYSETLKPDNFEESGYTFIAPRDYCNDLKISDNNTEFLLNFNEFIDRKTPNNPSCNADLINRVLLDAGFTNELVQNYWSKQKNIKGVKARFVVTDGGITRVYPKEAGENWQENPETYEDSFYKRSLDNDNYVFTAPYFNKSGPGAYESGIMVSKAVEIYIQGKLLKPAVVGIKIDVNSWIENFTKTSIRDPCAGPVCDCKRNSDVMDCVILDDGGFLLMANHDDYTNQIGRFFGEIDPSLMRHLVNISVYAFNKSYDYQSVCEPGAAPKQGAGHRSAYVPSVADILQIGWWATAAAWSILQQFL
N-type calcium channel, sequence (P54289 947-1103 partner limits assumed): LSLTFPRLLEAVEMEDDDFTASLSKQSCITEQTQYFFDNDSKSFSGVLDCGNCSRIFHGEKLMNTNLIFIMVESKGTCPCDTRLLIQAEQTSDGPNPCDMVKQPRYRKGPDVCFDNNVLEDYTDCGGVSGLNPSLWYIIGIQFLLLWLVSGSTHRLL
N-type calcium channel (α1B (Cav2.2), β3 and α2δ subunits), sequence (Q00975 whole entry): as the sequence (Q00975 whole entry) above
N-type calcium channel (α1B (Cav2.2), β3 and α2δ subunits), sequence (P54284 whole entry partner): as the sequence (P54284 whole entry partner) above
N-type calcium channel (α1B (Cav2.2), β3 and α2δ subunits), sequence (P54289 25-946 partner limits assumed): as the sequence (P54289 25-946 partner limits assumed) above
N-type calcium channel (α1B (Cav2.2), β3 and α2δ subunits), sequence (P54289 947-1103 partner limits assumed): as the sequence (P54289 947-1103 partner limits assumed) above

Turning to `CCOc1ccccc1-n1nc2c(c1-c1ccc(Cl)cc1)C[C@@H](NC(=O)C(F)(F)F)C2` [Compound 45, N-[(5R)-3-(4-chlorophenyl)-2-(2-ethoxyphenyl)-2,4,5,6-tetrahydrocyclopenta[c]pyrazol-5-yl]-2,2,2-trifluoroacetamide], in experiment [1], the inhibition – broadly, the relative decrease from the control value, in per cent – at 0.33 µM was determined as 94% and the IC50 (usually the point on the concentration scale where inhibition reaches its midpoint) turned out to be 4 nM. Further, at N-type calcium channel (setting [2]), the inhibition at 0.1 µM was 68%. Besides, the inhibition at 0.1 µM on N-type calcium channel (setting [3]) was 60%.

For `CCOc1ccccc1-n1nc2c(c1-c1ccc(Cl)cc1)C[C@@H](N(C)S(=O)(=O)N(C)C)C2` [Compound 46, N-[(5R)-3-(4-chlorophenyl)-2-(2-ethoxyphenyl)-2,4,5,6-tetrahydrocyclopenta[c]pyrazol-5-yl]-N,N′,N′-trimethylsulfamide], the inhibition at 0.33 µM in experiment [1] was determined as 99%. For the same molecule, the IC50 in experiment [1] came to 2.6 nM. In addition, the results for the inhibition at 0.1 µM on N-type calcium channel (setting [2]) and at N-type calcium channel (setting [3]) were 50% and 21%, respectively.

As for `CCOc1ccccc1-n1nc2c(c1-c1ccc(Cl)cc1)CC(NS(=O)(=O)N(C)C)C2` (stereo not drawn) [Compound 47, N′-[3-(4-chlorophenyl)-2-(2-ethoxyphenyl)-2,4,5,6-tetrahydrocyclopenta[c]pyrazol-5-yl]-N,N-dimethylsulfamide], in experiment [1], the inhibition at 0.33 µM came out at 92% and the IC50 was 4 nM. In addition, the inhibition at 0.1 µM on N-type calcium channel (setting [2]) is 19%. Further, the inhibition at 0.1 µM at N-type calcium channel (setting [3]) was 15%.

For `CCOc1ccccc1-n1nc2c(c1-c1ccc(Cl)cc1)CC(N(C)S(=O)(=O)N(C)C)C2` (stereo not drawn) [Compound 48, N-[3-(4-chlorophenyl)-2-(2-ethoxyphenyl)-2,4,5,6-tetrahydrocyclopenta[c]pyrazol-5-yl]-N,N′,N′-trimethylsulfamide], in experiment [1], the inhibition at 0.33 µM came out at 97% and the IC50 came to 1.2 nM. Moreover, the inhibition at 0.1 µM on N-type calcium channel (setting [2]) worked out at 63%. Besides, on N-type calcium channel (setting [3]), the inhibition at 0.1 µM amounted to 52%.

As for `CN(C)S(=O)(=O)N(C)[C@@H]1Cc2nn(-c3cccc4c3OCC4)c(-c3ccc(Cl)cc3)c2C1` [Compound 50, N-[(5S)-3-(4-chlorophenyl)-2-(2,3-dihydro-1-benzofuran-7-yl)-2,4,5,6-tetrahydrocyclopenta[c]pyrazol-5-yl]-N,N′,N′-trimethylsulfamide], in experiment [1], the inhibition at 0.33 µM worked out at 95% and the IC50 is 14 nM. Also, the inhibition at 0.1 µM on N-type calcium channel (setting [2]) was 41%. Further, the inhibition at 0.1 µM on N-type calcium channel (setting [3]) was found to be 33%.

As to `CC(C)S(=O)(=O)N(C)[C@@H]1Cc2nn(-c3cccc4c3OCC4)c(-c3ccc(Cl)cc3)c2C1` [Compound 51, N-[(5S)-3-(4-chlorophenyl)-2-(2,3-dihydro-1-benzofuran-7-yl)-2,4,5,6-tetrahydrocyclopenta[c]pyrazol-5-yl]-N-methylpropane-2-sulfonamide], the inhibition at 0.33 µM in experiment [1] amounted to 94%. Also, the IC50 in experiment [1] came out at 34 nM. Further, the inhibition at 1 µM came out at 66% on N-type calcium channel (setting [2]) and 49% on N-type calcium channel (setting [3]).

On to `COc1ccccc1-n1nc2c(c1-c1ccc(Cl)cc1)CC1(C2)OCCCO1` [Compound 54, 3-(4-chlorophenyl)-2-(2-methoxyphenyl)-2,6-dihydro-4H-spiro[cyclopenta[c]pyrazole-5,2′-[1,3]dioxane]], for which, in experiment [1], the inhibition at 0.33 µM stood at 86% and the IC50 is 50 nM. In addition, the inhibition at 1 µM at N-type calcium channel (setting [2]) was 67%. In addition, at N-type calcium channel (setting [3]), the inhibition at 1 µM was found to be 55%.

Regarding `CCC(CC)C(=O)O[C@H]1Cc2nn(-c3ccccc3OC)c(-c3ccc(Cl)cc3)c2C1` [Compound 55, (5R)-3-(4-chlorophenyl)-2-(2-methoxyphenyl)-2,4,5,6-tetrahydrocyclopenta[c]pyrazol-5-yl 2-ethylbutanoate], in experiment [1], the inhibition at 0.33 µM was found to be 95% and the IC50 came out at 11 nM. Further, on N-type calcium channel (setting [2]), the inhibition at 0.03 µM came to 19%, the inhibition at 0.1 µM turned out to be 29% and the inhibition at 1 µM stood at 79%. In addition, on N-type calcium channel (setting [3]), the inhibition at 0.03 µM came to 15%, the inhibition at 0.1 µM came to 12% and the inhibition at 1 µM came out at 57%.

On to `COc1ccc(-c2c3c(nn2-c2ccccc2OC)C[C@H](N(C)S(=O)(=O)N(C)C)C3)cn1` [Compound 56, N-[(5R)-2-(2-Methoxyphenyl)-3-(6-methoxypyridin-3-yl)-2,4,5,6-tetrahydrocyclopenta[c]pyrazol-5-yl]-N,N′,N′-trimethylsulfamide], for which, in experiment [1], the inhibition at 0.33 µM came to 93% and the IC50 came to 13 nM. On N-type calcium channel (setting [2]), the inhibition at 0.1 µM was found to be 2% and the inhibition at 1 µM came to 47%. Besides, on N-type calcium channel (setting [3]), the inhibition at 0.1 µM is -1% and the inhibition at 1 µM worked out at 32%.

On to `COc1ccccc1-n1nc2c(c1-c1ccc(OC(C)C)nc1)C[C@@H](N(C)S(=O)(=O)N(C)C)C2` [Compound 57, N-{(5R)-2-(2-Methoxyphenyl)-3-[6-(1-methylethoxy)pyridin-3-yl]-2,4,5,6-tetrahydrocyclopenta[c]pyrazol-5-yl}-N,N′,N′-trimethylsulfamide], for which, in experiment [1], the inhibition at 0.33 µM was 99% and the IC50 turned out to be 18 nM. Besides, the inhibition at 1 µM on N-type calcium channel (setting [2]) was found to be 83%. Also, on N-type calcium channel (setting [3]), the inhibition at 1 µM worked out at 75%.

Turning to `COc1ccccc1-n1nc2c(c1-c1ccc(Cl)cc1)CC(c1cccnc1)C2` (stereo not drawn) [Compound 63, 3-(4-chlorophenyl)-2-(2-methoxyphenyl)-5-pyridin-3-yl-2,4,5,6-tetrahydrocyclopenta[c]pyrazole], in experiment [1], the inhibition at 0.33 µM came to 98% and the IC50 worked out at 8.6 nM. On N-type calcium channel (setting [2]), the inhibition at 1 µM amounted to 62%. Further, at N-type calcium channel (setting [3]), the inhibition at 1 µM came out at 40%.

In the case of `COc1ccccc1-n1nc2c(c1-c1ccc(Cl)cc1)C[C@H](OC(C)C)C2` [Compound 67, (5S)-3-(4-chlorophenyl)-2-(2-methoxyphenyl)-5-(1-methylethoxy)-2,4,5,6-tetrahydrocyclopenta[c]pyrazole], in experiment [1], the inhibition at 0.33 µM came out at 100% and the IC50 amounted to 5.7 nM. On N-type calcium channel (setting [2]), the inhibition at 0.1 µM turned out to be 61%. The inhibition at 0.1 µM at N-type calcium channel (setting [3]) is 48%.

On to `COc1ccccc1-n1nc2c(c1-c1ccc(Cl)cc1)CC(N1CCOCC1)C2` (stereo not drawn) [Compound 68, 3-(4-chlorophenyl)-2-(2-methoxyphenyl)-5-morpholin-4-yl-2,4,5,6-tetrahydrocyclopenta[c]pyrazole], for which, in experiment [1], the inhibition at 0.33 µM was 95% and the IC50 was 16 nM. For the same molecule, the inhibition at 0.1 µM on N-type calcium channel (setting [2]) was found to be 31%. Also, the inhibition at 0.1 µM at N-type calcium channel (setting [3]) is 33%.

Regarding `COc1ccccc1-n1nc2c(c1-c1ccc(Cl)cc1)C[C@H](O[Si](C)(C)C)C2` [Compound 69, (5S)-3-(4-chlorophenyl)-2-(2-methoxyphenyl)-5-[(trimethylsilyl)oxy]-2,4,5,6-tetrahydrocyclopenta[c]pyrazole], in experiment [1], the inhibition at 0.33 µM came to 93% and the IC50 came out at 9.6 nM. The inhibition at 0.1 µM on N-type calcium channel (setting [2]) is 26%. Moreover, the inhibition at 0.1 µM on N-type calcium channel (setting [3]) stood at 15%.

`CCC(CC)C(=O)O[C@@H]1Cc2nn(-c3ccccc3OC)c(-c3ccc(Cl)cc3)c2C1` [Compound 70, (5S)-3-(4-chlorophenyl)-2-(2-methoxyphenyl)-2,4,5,6-tetrahydrocyclopenta[c]pyrazol-5-yl 2-ethylbutanoate]: in experiment [1], the inhibition at 0.33 µM came to 96% and the IC50 came out at 15 nM. In addition, the inhibition at 0.1 µM on N-type calcium channel (setting [2]) was 19%.

For the molecule `COc1ccccc1-n1nc2c(c1-c1ccc(Cl)cc1)C[C@H](OC1CCCCO1)C2` (stereo partly drawn) [Compound 76, (5S)-3-(4-chlorophenyl)-2-(2-methoxyphenyl)-5-(tetrahydro-2H-pyran-2-yloxy)-2,4,5,6-tetrahydrocyclopenta[c]pyrazole], the inhibition at 0.33 µM in experiment [1] amounted to 92%. Besides, the IC50 in experiment [1] was determined as 28 nM. Also, the inhibition at 0.1 µM stood at 42% on N-type calcium channel (setting [2]) and 27% at N-type calcium channel (setting [3]).

Turning to `COc1ccccc1-n1nc2c(c1-c1ccc(Cl)cc1)C[C@H](OC(=O)C1CCCCC1)C2` [Compound 78, (5S)-3-(4-chlorophenyl)-2-(2-methoxyphenyl)-2,4,5,6-tetrahydrocyclopenta[c]pyrazol-5-yl cyclohexanecarboxylate], in experiment [1], the inhibition at 0.33 µM amounted to 78% and the IC50 is 93 nM. Moreover, on N-type calcium channel (setting [2]), the inhibition at 0.1 µM amounted to 27%. Further, on N-type calcium channel (setting [3]), the inhibition at 0.1 µM was 15%.

In the case of `COc1ccccc1-n1nc2c(c1-c1ccc(Cl)cc1)C[C@H](OC(=O)C1CCCC1)C2` [Compound 79, (5S)-3-(4-chlorophenyl)-2-(2-methoxyphenyl)-2,4,5,6-tetrahydrocyclopenta[c]pyrazol-5-yl cyclopentanecarboxylate], in experiment [1], the inhibition at 0.33 µM stood at 82% and the IC50 was found to be 75 nM. The inhibition at 0.1 µM at N-type calcium channel (setting [2]) turned out to be 11%. In addition, the inhibition at 0.1 µM on N-type calcium channel (setting [3]) is -7%.

`COc1ccccc1-n1nc2c(c1-c1ccc(Cl)cc1)C[C@H](OC(=O)C1CCC1)C2` [Compound 80, (5S)-3-(4-chlorophenyl)-2-(2-methoxyphenyl)-2,4,5,6-tetrahydrocyclopenta[c]pyrazol-5-yl cyclobutanecarboxylate]: in experiment [1], the inhibition at 0.33 µM stood at 89% and the IC50 was found to be 31 nM. Besides, on N-type calcium channel (setting [2]), the inhibition at 0.1 µM is 22% and the inhibition at 1 µM was found to be 43%. In addition, on N-type calcium channel (setting [3]), the inhibition at 0.1 µM worked out at 7% and the inhibition at 1 µM amounted to 6%.

Regarding `COc1ccccc1-n1nc2c(c1-c1ccc(Cl)cc1)C[C@H](OC(=O)C(C)C)C2` [Compound 81, (5S)-3-(4-chlorophenyl)-2-(2-methoxyphenyl)-2,4,5,6-tetrahydrocyclopenta[c]pyrazol-5-yl 2-methylpropanoate], in experiment [1], the inhibition at 0.33 µM stood at 86% and the IC50 is 48 nM. Further, the inhibition at 0.1 µM on N-type calcium channel (setting [2]) was found to be 12%. Moreover, the inhibition at 0.1 µM on N-type calcium channel (setting [3]) was -4%.
